From PMC12654037, “Norditerpene Natural Products from Subterranean Fungi with Anti-Parasitic Activity” (Microorganisms, 2025)

Experiments:
[1] = test system: G. lamblia WBC6 and CBG99 trophozoites; test: Giardia lamblia trophozoite growth inhibition assay; format: cell-based
Description: Compound inhibition assay against Giardia lamblia WBC6 and CBG99 trophozoites: Biological replicates of growth inhibition assays were performed using wild-type G. lamblia WBC6 and G. lamblia CBG99 trophozoites at 37 °C under reduced oxygen conditions in a sealed 0.5 mL airtight sterile tube (USA Scientific, Ocala, FL, USA), following the susceptibility assay described below. G. lamblia trophozoites were grown in TYI-S-33 medium supplemented with 10% bovine serum and 0.05 mg/mL bovine bile, as previously described. A 3-fold serial concentration of pure compounds starting at 29 µM was screened against 75,000 cells/mL of parasites in modified TYI-S-33 medium with a final dimethyl sulfoxide (DMSO) concentration of 0.14%. Metronidazole was run in parallel at a final highest concentration of 66.7 µM and 3-fold subsequent serial dilutions. The untreated negative control contained 0.14% of DMSO. Sealable test tubes filled to its maximum volume of 700 µL were used to perform this assay. The test tubes were incubated at 37 °C for 72 h. After incubation, the tubes were chilled on ice, and the reaction was transferred to 96-well plates. In the plate, 50 µL of an ATP binding luminescence marker, CellTiter-Glo (Promega, Madison, WI, USA) or 10 µL of 2.5 mg/mL d-luciferin (GoldBio, St Louis, MO, USA) was added to each well and allowed to develop at room temperature for 10 min [31, 36]. The assay was read and analyzed using an EnVision Plate Reader (Perkin Elmer, Waltham, MA, USA). Response curves and EC50 values (the concentration at which 50% of G. lamblia trophozoite growth was inhibited) were calculated using GraphPad Prism (GraphPad, LaJolla, CA, USA).

[2] = test system: HepG2 human hepatocytes; test: HepG2 cytotoxicity assay (MTS); format: cell-based; conditions: 48 h, mean +/- SD
Description: HepG2 cytotoxicity assay: Mammalian cell cytotoxicity was assessed in HepG2 human hepatocytes using an MTS 3-(4,5-dimethylthiazol-2-yl)-5-(3-carboxymethoxyphenyl)-2-(4-sulfophenyl)-2H-tetrazolium)-based cytotoxicity assay. For cytotoxicity testing, ∼2250 cells were seeded into each well of a 384-well microtiter plate and incubated for 24 h. Serial dilutions of the compounds were added in triplicate starting at 25 μM. Cells were further incubated for an additional 48 h at 37 °C in an atmosphere containing 5% CO2. Zero-growth control wells were incubated with 5% Triton X-100 for 5 min prior to MTS addition. Following the addition of MTS to all wells, the plates were incubated for an additional 4 h under the same environmental conditions before taking absorbance measurements. Absorbance values were recorded at 490 nm using a Synergy Neo2 multimode reader (BioTek), and values were normalized based on Triton X-100-lysed and no treatment controls. Samples were run in triplicate in each assay, and the experiments were repeated three times.

[3] = test system: TgRH-Luc:GFP; test: T. gondii -static versus -cidal washout assay; format: cell-based, Toxoplasma gondii; conditions: for treatment time after which T. gondii did not recover (killing time): at EC90 15 µM, compound washed out, read 48 h post-infection
Description: T. gondii growth inhibition assays: The T. gondii inhibition assay was described previously. Briefly, HFF cells were seeded onto white-sided, clear-bottom 96 well plates, grown to confluence, and then 5000 TgRH-Luc:GFP parasites were added to each well. At 24 hpi, compounds or DMSO were added. The growth of the parasites was determined by relative luminescence at 48 hpi using Promega Bright-Glo (Promega, Madison, WI, USA) substrate. Plates were read, and the percent inhibition of parasite growth was calculated as described above. Determination of -static versus -cidal activity was conducted as indicated above, with parasite growth quantified after 48 h of infection. Each sample was run in triplicate, and each experiment was repeated three times.

[4] = test system: C. parvum intracellular stages; test: C. parvum immunofluorescence assay; format: cell-based, Cryptosporidium parvum; conditions: 7.5 µM, 20 h
Description: C. parvum and T. gondii immunofluorescence assays (IFAs): IFAs were conducted as previously described with modifications. For C. parvum IFAs, HCT-8 cells were seeded on 4-well chamber cell culture glass slides (CELLTREAT Scientific Product, Pepperell, MA, USA). At confluency, the cell monolayers were infected with 5 × 10^5 wild-type (WT) C. parvum oocysts prepared as previously described. Slides were spun at 1000 rpm for 3 min to allow oocysts to have full contact with the cell monolayers. At 4 hpi, 7.5 µM oidiolactone A or DMSO control, diluted in medium containing 0.6% taurocholic acid, was added to the infected cells for 20 h. At 24 hpi, the slides were fixed with 4% paraformaldehyde and permeabilized with 0.25% Triton-X. The slides were then blocked with 10% goat serum in 1x PBS. C. parvum intracellular stages were visualized with Sporo-glo (Waterborne inc., New Orleans, LA, USA). The slides were mounted using VECTASHIELD® PLUS Antifade Mounting Medium with DAPI (Vector Laboratories, Inc., Newark CA, USA). Representative images of the samples were taken using the Nikon AX R confocal microscope and Nikon Elements acquisition software. Image processing was performed using Fiji v1.54p.

[5] = test system: P. falciparum 3D7; test: Plasmodium falciparum growth inhibition assay (SYBR Green I), 3D7; conditions: 3D7, 72 h, read-out: EC50 3D7(M)
Description: Plasmodium falciparum growth inhibition assay: Antiplasmodial EC50 results were determined using a fluorescence-based SYBR Green I assay performed using asynchronous cultures [30, 35]. […] Plates were subsequently frozen at −80 °C to facilitate lysis. […] Relative fluorescence units (RFUs) were normalized based on chloroquine-treated and no treatment controls. Serial dilutions of compounds were prepared in RPMI with final assay conditions of ≤0.2% DMSO. Each assay was conducted in triplicate with three biological replicates.

[6] = test system: HFF cells; test: HFF cytotoxicity assay; format: cell-based
Description: HCT-8 and HFF cytotoxicity assays: Cytotoxicity of the compounds was determined against both confluent (the conditions of the infection assays) and growing HCT-8 and HFF host cells, as previously described. Cells were seeded into white-sided, clear-bottom 96-well plates and grown to either 40% or 100% confluency. Compounds were added to cells at various concentrations up to 100 µM in a final DMSO concentration of 0.5%. DMSO was run in parallel as a vehicle control. After 48 h, the viability of the cells was determined by either quantification of cellular ATP (Cell-Titer Glo cell viability assay; Promega, Madison WI, USA) or by MTT assay. Viability was determined 24 h after compound addition to HFF cells or 48 h after compound addition to HCT-8 cells or HepG2 cells. The percent cell growth was then calculated with the following formula: % Cell Growth = [RLUcompound/RLUDMSO] × 100. Samples were run in triplicate with two to three biological replicates.

[7] = test system: C. parvum asexual and sexual stages; test: C. parvum asexual/sexual stage assay (4 h treatment windows); format: cell-based, Cryptosporidium parvum
Description: To determine -static versus -cidal activity, the infection assay was conducted as described, but infected cells were treated with compounds for 30 min up to 24 h. The compounds were removed after the designated times, and infection was quantified at 72 h post-infection. To determine the activity of the compounds against asexual and sexual stages of the parasite, compounds were added for 4 h windows at times corresponding to asexual or sexual development. Parasite proliferation was then determined at 72 h post-infection. For all assays, each sample was run in triplicate, and three biological replicates were performed.

CO[C@H]1OC(=O)C=C2[C@@]13O[C@@H]3[C@H]1OC(=O)[C@@]3(C)CCC[C@@]2(C)[C@@H]13 [compound 1, oidiolactone A]
activity against G. lamblia (no activity up to) ([1]; 72 h): > 29 µM
EC50 ([1]; Giardia duodenalis, read-out: EC50 G. lamblia): > 30 µM
TC50 HepG2 [2]: > 25 µM
EC90 ([3]; Toxoplasma gondii): 15 µM
treatment time after which T. gondii did not recover (killing time) ([3]; listed as Oidiolactone A): ≤ 24 h
treatment time after which T. gondii did not recover (killing time) ([3]; listed as oidiolactone A): 8 to 12 h
abundance of treated C. parvum parasites by IFA [4]: much lower abundances
EC50 [5]: 3.33e-06 ± 6.4e-07 M
TC50 HFF (confluent) ([6]; confluent): > 30 µM
toxicity to host cells (no toxicity up to) ([6]; confluent HFF, conditions of the infection assay, 24 h, cellular ATP): > 100 µM
cytotoxicity against sub-confluent HFF ([6]; sub-confluent): no cytotoxicity observed
activity against gamete stages ([7]; 7.5 μM, 4 h intervals): no activity
inhibition at 7.5 µM ([7]; Cryptosporidium parvum, 4 h intervals post-infection, read 72 h, read-out: inhibition of parasites in asexual stage and transition to sexual stages): 20 to 75%
